# Assay results as given in PMC6105598, “Targeting protein-protein interactions for therapeutic discovery via FRET-based high-throughput screening in living cells” (Scientific Reports, 2018).
# How the values were obtained:
# [1] = molecular target: SERCA2a-PLB complex (GFP-SERCA2a / RFP-PLB in HEK293 cells) (Homo sapiens, UniProt P16615+P26678, C36A/C41F/C46A); test: FRET of SERCA2a-PLB biosensor in saponin-permeabilized cells at low and high Ca; settings: 100 nM Tg, low Ca (100 nM) vs high Ca (10 µM)
# SERCA2a-PLB complex (GFP-SERCA2a / RFP-PLB in HEK293 cells), sequence (P16615 1-997 isoform P16615-2, stated change not applied): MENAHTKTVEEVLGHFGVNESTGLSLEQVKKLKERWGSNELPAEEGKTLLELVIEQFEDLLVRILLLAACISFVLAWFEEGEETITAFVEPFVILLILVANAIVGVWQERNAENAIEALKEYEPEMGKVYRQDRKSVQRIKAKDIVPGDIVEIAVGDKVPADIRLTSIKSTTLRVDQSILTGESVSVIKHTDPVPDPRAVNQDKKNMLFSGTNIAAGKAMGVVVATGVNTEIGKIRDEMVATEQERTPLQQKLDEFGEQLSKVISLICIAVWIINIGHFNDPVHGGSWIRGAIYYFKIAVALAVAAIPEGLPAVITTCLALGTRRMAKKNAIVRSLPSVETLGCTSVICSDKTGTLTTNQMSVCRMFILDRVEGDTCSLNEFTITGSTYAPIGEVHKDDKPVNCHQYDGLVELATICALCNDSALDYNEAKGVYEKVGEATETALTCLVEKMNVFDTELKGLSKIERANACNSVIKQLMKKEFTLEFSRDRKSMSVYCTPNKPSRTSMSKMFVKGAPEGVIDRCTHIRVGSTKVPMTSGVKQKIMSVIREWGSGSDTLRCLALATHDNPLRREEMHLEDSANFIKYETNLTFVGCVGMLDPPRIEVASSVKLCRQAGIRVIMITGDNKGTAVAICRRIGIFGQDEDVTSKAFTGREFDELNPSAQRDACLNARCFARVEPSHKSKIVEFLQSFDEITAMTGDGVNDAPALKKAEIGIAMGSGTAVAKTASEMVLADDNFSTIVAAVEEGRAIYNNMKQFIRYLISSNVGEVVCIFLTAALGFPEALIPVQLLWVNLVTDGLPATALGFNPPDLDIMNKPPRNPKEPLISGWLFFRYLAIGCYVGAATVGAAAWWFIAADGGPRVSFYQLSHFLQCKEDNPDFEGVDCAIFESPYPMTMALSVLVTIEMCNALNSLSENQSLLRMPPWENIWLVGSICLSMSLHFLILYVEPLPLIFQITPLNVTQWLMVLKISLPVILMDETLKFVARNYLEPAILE
# SERCA2a-PLB complex (GFP-SERCA2a / RFP-PLB in HEK293 cells), sequence (P26678 whole entry C36A/C41F/C46A): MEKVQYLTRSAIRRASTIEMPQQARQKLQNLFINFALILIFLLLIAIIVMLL
# Experimental: To test this, we quantified FRET changes in permeabilized cells under conditions of low Ca (100 nM) and high Ca (10 µM).
# (a) Left- FLT measurements in saponin-permeabilized cells under conditions of low Ca (100 nM) and high Ca (10 µM), and in the absence and presence (100 nM) of the SERCA inhibitor thapsigargin (Tg). […] Error bars indicate SD (n = 3). Statistical differences determined using 1-way ANOVA followed by Tukey post hoc analysis (more detailed analysis is provided in Supplemental Table 4). *P ≤ 0.01 and N.S. indicating P ≥ 0.05.
# To generate SERCA2a-PLB biosensor, HEK293 cells were transiently transfected using Lipofectamine 3000 with GFP-SERCA2a and RFP-PLB in a 1:7 molar ratio for the screen. Cells were then assayed 48 hours post-transfection. For cell permeabilization experiments, cells were trypsinized (TrypLE, Thermo Fischer Scientific), PBS-washed (three times), and resuspended in a homogenization buffer (20 mM MOPS, 0.5 MgCl2, protease inhibitor cocktail (Roche, Basel, Switzerland)). Saponin (Sigma-Aldrich) was added to a final concentration of 10 µg/mL and cells were incubated for 4 min at 37 °C water bath. Saponin was removed by centrifugation for 3 min, cells were washed twice with homogenization buffer, and resuspended in homogenization buffer.
# [2] = molecular target: T1, skeletal SR (SERCA1a only) (Oryctolagus cuniculus, UniProt P04191); test: Ca-ATPase activity of skeletal SR (SSR), NADH-linked enzyme-coupled assay; format: biochemical, rabbit
# T1 construct: Skeletal muscle SR membrane vesicles were isolated from longissimus dorsi obtained from New Zealand white rabbits; from tissue; host or cells: rabbit longissimus dorsi skeletal muscle, SR membrane vesicles
# T1 sequence (P04191 1-994 isoform P04191-2): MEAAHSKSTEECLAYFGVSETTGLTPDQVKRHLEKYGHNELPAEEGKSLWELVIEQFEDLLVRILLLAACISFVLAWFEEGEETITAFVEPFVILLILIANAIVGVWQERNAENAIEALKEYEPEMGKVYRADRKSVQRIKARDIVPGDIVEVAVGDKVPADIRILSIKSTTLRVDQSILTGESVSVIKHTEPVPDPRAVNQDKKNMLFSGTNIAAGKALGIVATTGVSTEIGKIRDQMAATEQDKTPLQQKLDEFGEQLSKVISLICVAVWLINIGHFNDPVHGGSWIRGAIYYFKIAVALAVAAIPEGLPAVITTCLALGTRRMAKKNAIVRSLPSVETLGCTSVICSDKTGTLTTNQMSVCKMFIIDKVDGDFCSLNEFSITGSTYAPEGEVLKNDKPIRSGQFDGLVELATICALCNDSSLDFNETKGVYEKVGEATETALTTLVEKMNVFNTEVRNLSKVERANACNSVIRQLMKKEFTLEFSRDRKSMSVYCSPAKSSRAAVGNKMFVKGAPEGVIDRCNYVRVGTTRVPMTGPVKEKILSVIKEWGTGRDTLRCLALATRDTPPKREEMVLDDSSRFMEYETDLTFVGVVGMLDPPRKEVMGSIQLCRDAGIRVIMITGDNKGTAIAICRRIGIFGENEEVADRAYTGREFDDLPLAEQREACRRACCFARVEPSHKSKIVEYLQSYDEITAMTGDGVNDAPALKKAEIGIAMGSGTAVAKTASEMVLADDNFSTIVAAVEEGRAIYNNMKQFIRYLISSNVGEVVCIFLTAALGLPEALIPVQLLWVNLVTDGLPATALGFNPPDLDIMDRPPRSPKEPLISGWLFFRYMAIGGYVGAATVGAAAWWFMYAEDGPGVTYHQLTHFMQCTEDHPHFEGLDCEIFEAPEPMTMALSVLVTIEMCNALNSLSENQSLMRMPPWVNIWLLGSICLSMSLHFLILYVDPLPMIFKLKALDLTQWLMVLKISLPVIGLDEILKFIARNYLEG
# Experimental: To further examine the functional effects of Hit compounds, Ca-ATPase assays were performed on both skeletal SR (SERCA1a only) and cardiac SR (SERCA2a + PLB) at a series of Ca concentrations ranging from pCa 5 to 8.
# Skeletal muscle SR membrane vesicles were isolated from longissimus dorsi obtained from New Zealand white rabbits, as previously described. Cardiac SR membrane vesicles were isolated from ventricular myocardium obtained from fresh pig hearts. All experimental protocols were reviewed and approved by University of Minnesota’s Institutional Animal Care and Use Committee, an Association for Assessment and Accreditation of Laboratory Animal Care institution.
# An enzyme-coupled, NADH-linked ATPase assay was used to measure SERCA ATPase activity in 96-well microplates. Each well contained 0.8 μg (skeletal) or 2 μg (cardiac) of SR vesicles adjusted for the different SERCA contents of skeletal and cardiac SR, 50 mM MOPS (pH 7.0), 100 mM KCl, 5 mM MgCl2, 1 mM EGTA, 0.2 mM NADH, 1 mM phosphoenol pyruvate, 10 IU/mL of pyruvate kinase, 10 IU/mL of lactate dehydrogenase, 3.5 μg/mL of the Ca ionophore A23187, and CaCl2 added to set free [Ca] to the desired values. The assay was started upon the addition of ATP at a final concentration of 5 mM and read in a SpectraMax Plus microplate spectrophotometer rom Molecular Devices (Sunnyvale, CA).
# [3] = test system: skeletal muscle SR Ca-ATPase; design: method as in PMID 12022919; settings: high concentrations (50 µM); cited from earlier work
compound,measurement,setting,value
C/C=C(/C)C(=O)O[C@H]1C(C)=C2[C@H]([C@@H]1OC(=O)CCCCCCC)[C@@](C)(OC(C)=O)C[C@H](OC(=O)CCC)[C@@]1(O)[C@H]2OC(=O)[C@@]1(C)O [thapsigargin],effect on Ca-dependent decrease in FRET,[1],prevents the Ca-dependent decreases in FRET
Ivermectin,EC50,[2]; SSR,5.75 µM
same,Vmax @ 30 µM,"[2]; SSR, 30 µM compound",0.32 i.u.
same,ΔVmax @ 30 µM,"[2]; SSR, 30 µM compound, relative to DMSO control",-87.6%
same,EC50,"[2]; SSR, listed as ivermectin",5.8 µM
same,decrease of Vmax,[2]; skeletal SR,88%
same,Ca-ATPase activity inhibited,[3],90%
